The source of these data is US8901305B2, “Aryl lactam kinase inhibitors” (Bristol-Myers Squibb Company, priority 2012, dated 2014).

One test concerns the target T1, GST-Xa-hAAK1 (Homo sapiens, UniProt Q2M2I8).
T1 construct: made in house
In words: AAK1 kinase assay. Format: biochemical. To be noted: ATP 22 μM, 3 hours at room temperature. The protocol: The assays were performed in U-bottom 384-well plates. […] The reactions were initiated by the combination of bacterially expressed, GST-Xa-hAAK1 with substrates and test compounds. The reactions were incubated at room temperature for 3 hours and terminated by adding 60 μl of 35 mM EDTA buffer to each sample. The reactions were analyzed on the Caliper LabChip 3000 (Caliper, Hopkinton, Mass.) by electrophoretic separation of the fluorescent substrate and phosphorylated product. […] Compounds were dissolved at 10 mM in dimethylsulfoxide (DMSO) and evaluated at eleven concentrations. IC50 values were derived by non-linear regression analysis.

For test [1], the target named is T2, AAK1 (full length human) with AP2M1 in HEK293F cells (Homo sapiens, UniProt Q2M2I8).
T2 construct: expressed in transfected cells; host or cells: HEK293F
T2 sequence (Q2M2I8 whole entry): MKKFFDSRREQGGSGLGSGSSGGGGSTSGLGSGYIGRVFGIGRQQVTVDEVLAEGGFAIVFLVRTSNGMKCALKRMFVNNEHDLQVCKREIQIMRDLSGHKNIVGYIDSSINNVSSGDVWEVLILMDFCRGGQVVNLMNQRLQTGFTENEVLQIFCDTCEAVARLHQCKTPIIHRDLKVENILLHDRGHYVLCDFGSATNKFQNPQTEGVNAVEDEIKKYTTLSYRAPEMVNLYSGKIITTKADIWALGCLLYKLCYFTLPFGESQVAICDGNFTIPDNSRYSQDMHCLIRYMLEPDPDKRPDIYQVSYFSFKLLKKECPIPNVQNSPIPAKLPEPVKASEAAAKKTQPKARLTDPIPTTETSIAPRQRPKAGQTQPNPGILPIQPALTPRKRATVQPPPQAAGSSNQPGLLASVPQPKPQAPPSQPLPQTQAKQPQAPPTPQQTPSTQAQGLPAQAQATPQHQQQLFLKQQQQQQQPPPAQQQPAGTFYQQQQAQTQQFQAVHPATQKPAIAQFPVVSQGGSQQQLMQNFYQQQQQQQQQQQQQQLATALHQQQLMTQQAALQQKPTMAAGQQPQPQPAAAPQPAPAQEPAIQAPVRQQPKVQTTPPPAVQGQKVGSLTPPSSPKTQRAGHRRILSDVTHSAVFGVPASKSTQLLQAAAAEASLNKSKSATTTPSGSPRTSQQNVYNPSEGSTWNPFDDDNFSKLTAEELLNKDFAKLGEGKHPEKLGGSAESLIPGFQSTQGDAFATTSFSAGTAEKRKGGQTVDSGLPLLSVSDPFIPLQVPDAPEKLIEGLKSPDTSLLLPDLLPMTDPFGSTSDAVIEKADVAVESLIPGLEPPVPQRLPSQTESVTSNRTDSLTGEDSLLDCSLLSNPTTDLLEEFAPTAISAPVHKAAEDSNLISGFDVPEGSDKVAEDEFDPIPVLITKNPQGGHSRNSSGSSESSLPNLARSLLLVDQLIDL
Kind of test: HEK281 cell-based assay (phospho-mu2 Western blot in transfected HEK293F cells). The note with it: 3 hours, inhibition of mu2 phosphorylation. The protocol: HEK293F cells were cultured in media containing DMEM (Gibco, cat. #11965), 10% FBS (SAFC Biosciences, cat. #12103C), 1×GPS (glutamine, penicillin and streptomycin). On day one, cells were plated on a 10 cm dish so that they are ˜80% confluent at time of transfection. Roughly 12 million cells were in a 10 cm dish at time of transfection. On day two, each dish was transfected with 48 ug DNA and 144 ul Lipofectamine 2000 (Invitrogen, cat. #11668-019). The DNA was comprised of a mixture (per 10 cm dish) containing 3 ug AAK1/HA/pIRES (full length human, NCBI accession no. NP_055726.2), 45 μg Flag/AP2MI/pcDNA (full length human), and 1.5 ml OPTI-MEM. The Lipofectamine 2000 is made up of a mixture (per 10 cm dish) containing 144 μl Lipofectamine 2000 and 1.5 ml OPTI-MEM. Each mixture was transferred to individual 15 ml tubes and incubated at RT for 5 minutes, and then the two mixes were combined and incubated at RT for 20 minutes. Growth media was then aspirated from each 10 cm plate and replaced with 10 ml of DMEM+10% FBS (no GPS). Finally, 3 ml DNA/Lipofectamine mix was added to each 10 cm dish and mix gently followed by incubate of plate overnight at 37° C. and 5% CO2.
On day three, compounds were diluted in 100% DMSO at 1000× final concentration, followed by 3-fold serial dilutions for a total of 5 concentrations tested. Four compounds were tested per 10 cm dish. One ul of each compound dilution was then pipetted into a deep-well, 96-well plate, followed by addition of 500 μl DMEM+0.5% FBS into each well for a 2× final concentration of each compound. Cells were resuspended in a 10 cm dish by simple pipetting (HEK293 cells come off the plate that easy at this point) and then transferred to a 50 ml conical tube and pelleted by centrifugation at 1000 rpm for 5 min. Cell pellets were then resuspended in 2.75 ml DMEM+0.5% FBS per 10 cm dish and 100 μl of cell suspension transferred into each well of 96-well TC plate. Finally, 100 μl of 2× compound diluted in DMEM+0.5% FBS was then added into wells containing cell suspension for a 1× final concentration. Plates were then incubated at 37° C. and 5% CO2 for 3 hours followed by transferring of cell suspensions from each well into 12-tube PCR strips. The PCR strips were spun in a tip rack at 1000 rpm for 5 minutes to pellet cells and media was then removed by pipetting without disturbing the cell pellet.
To prepare for Western Blot analysis, cell pellets were resuspend in 40 ul 1×LDS-PAGE sample buffer (Invitrogen, cat. # NP0008)+2× Halt phosphatase and protease inhibitor cocktail (Thermo Scientific, cat. #1861284), followed by sonicating each with microtip sonicator set at 5 for 8-10 seconds. Five ul of 10× NuPage Sample Reducing Agent (with […]) was to each sample followed by heat denaturing at 70 C for 10 min on PCR machine. A total of 10 μl per sample was loaded into each lane of a 4-20% Tris-Glycine Criterion 26-well gel (Biorad, cat. #345-0034) for the phospho-mu2 blot and 10 μl per lane in a 4-12% Bis-Tris (+MES buffer) NuPAGE 26-well gel (Invitrogen, cat. # WG1403BX10) for the mu2 blot. For controls, 2 ng of phospho-mu2 or 20 ng mu2/Flag proteins were loaded in the last well of each gel. After SDS-PAGE, samples on each gel were transferred to PVDF membrane using an iBlot and membranes were blocked for one hour in TBST+5% milk, followed by wash 3× for 5-10 min with TBST. Criterion gels were probed with rabbit anti-phospho-mu2 (1:5000; a rabbit polyclonal antibody produced by New England Peptide and affinity purified at Lexicon) in TBST+5% BSA, whereas, NuPAGE gels were probed with mouse anti-Flag (1:500; Sigma, cat. # F1804) in TBST+5% milk, and these primary antibodies were incubated overnight at 4° C. on a rocker. […]

For orientation: IC50 means the point on the concentration scale where inhibition reaches its midpoint.

Bounds are passed on as bounds.

T1 sequence (Q2M2I8 whole entry): as above

Turning to `CC(C)C[C@H](N)COc1cc2c(cc1C(C)C)c1ccncc1c(=O)n2C` [Example 47, (S)-8-(2-amino-4-methylpentyloxy)-9-isopropyl-6-methylbenzo[c][2,7]naphthyridin-5(6H)-one], the IC50 at GST-Xa-hAAK1 was 4.5 nM; in test [1] (given as IC50 range), 10 to 100 nM.
With `Cc1nccc2c1c(=O)n(C)c1cc(OC[C@@H](N)CC=C(F)F)c(C#N)cc21` [Example 106, (S)-8-((2-amino-5,5-difluoropent-4-en-1-yl)oxy)-4,6-dimethyl-5-oxo-5,6-dihydrobenzo[c][2,7]naphthyridine-9-carbonitrile], the IC50 (on GST-Xa-hAAK1 (given as IC50 range); in test [1] (given as IC50 range)) was below 1 nM in each case.
Regarding `CC(C)C[C@H](N)COc1cc2c(cc1Br)c1ccncc1c(=O)n2C` [Example 3, (S)-8-((2-amino-4-methylpentyl)oxy)-9-bromo-6-methylbenzo[c][2,7]naphthyridin-5(6H)-one], the 50% inhibitory concentration (IC50) at GST-Xa-hAAK1 came out at 2.7 nM; in test [1], 1.6 nM.
`Cc1nccc2c1c(=O)n(C)c1cc(OC[C@H](N)CC(C)C)ccc21` [Example 19, (R)-8-((2-amino-4-methylpentyl)oxy)-4,6-dimethylbenzo[c][2,7]naphthyridin-5(6H)-one]: the IC50 (on GST-Xa-hAAK1 (given as IC50 range); in test [1] (given as IC50 range)) was 10 to 100 nM each time.
As for `Cc1cc2c3ccnc(C)c3c(=O)n(C)c2cc1OC[C@@H](N)CC(C)C` [Example 63, (S)-8-(2-amino-4-methylpentyloxy)-4,6,9-trimethylbenzo[c][2,7]naphthyridin-5(6H)-one], the IC50 (at GST-Xa-hAAK1 (given as IC50 range); in test [1] (given as IC50 range)) was 1 to 10 nM in each case.
Turning to `Cc1nccc2c1c(=O)n(C)c1cc(OC[C@@H](N)CC(C)C)ccc21` [Example 16, (S)-8-((2-amino-4-methylpentyl)oxy)-4,6-dimethylbenzo[c][2,7]naphthyridin-5(6H)-one], the IC50 (at GST-Xa-hAAK1 (given as IC50 range); in test [1] (given as IC50 range)) was 10 to 100 nM throughout.
As for `CC(C)C[C@H](N)COc1ccc2c(c1)[nH]c(=O)c1cnccc12` [Example 1, (S)-8-(2-amino-4-methylpentyloxy)benzo[c][2,7]naphthyridin-5(6H)-one], the figures for the IC50 (on GST-Xa-hAAK1; in test [1]) were 5.7 nM and 14 nM, respectively.
As for `Cc1nccc2c1c(=O)n(C)c1cc(OC[C@@H](N)CC(C)C)c(C(F)(F)F)cc21` [Example 75, (S)-8-(2-amino-4-methylpentyloxy)-4,6-dimethyl-9-(trifluoromethyl)benzo[c][2,7]naphthyridin-5(6H)-one], the IC50 (on GST-Xa-hAAK1 (given as IC50 range); in test [1] (given as IC50 range)) was 1 to 10 nM in each case.
With `Cc1nccc2c1c(=O)n(C)c1cc(OC[C@](C)(N)CC(C)C)ccc21` (single isomer, unassigned) [Example 37], the figures for the IC50 (at GST-Xa-hAAK1; in test [1] (given as IC50 range)) were 3.9 nM and 10 to 100 nM, respectively.
As to `CC(C)C[C@H](N)COc1ccc2c3ccncc3c(=O)n(C)c2c1` [Example 2, (S)-8-((2-amino-4-methylpentyl)oxy)-6-methylbenzo[c][2,7]naphthyridin-5(6H)-one], the IC50 was 1 to 10 nM at GST-Xa-hAAK1 (given as IC50 range) and 7 nM in test [1].
On to `Cc1nccc2c1c(=O)n(C)c1cc(OC[C@@H](N)CC(C)C(F)(F)F)ccc21` (single isomer, unassigned) [Example 88], for which the IC50 at GST-Xa-hAAK1 (given as IC50 range) lay within 1 to 10 nM; in test [1] (given as IC50 range) it was 10 to 100 nM.
For `Cn1c(=O)c2cnccc2c2cc(C#N)c(OCC(N)CCC(F)(F)F)cc21` (centres unmarked) [Example 56, 8-((2-amino-5,5,5-trifluoropentyl)oxy)-6-methyl-5-oxo-5,6 dihydrobenzo[c][2,7]naphthyridine-9-carbonitrile], in that order: 1 to 10 nM and 1 to 10 nM.
With `Cc1nccc2c1c(=O)n(C)c1cc(OCC(C)(N)CC(C)C)ccc21` (centres unmarked) [Example 32, 8-((2-amino-2,4-dimethylpentyl)oxy)-4,6-dimethylbenzo[c][2,7]naphthyridin-5(6H)-one], the IC50 at GST-Xa-hAAK1 is 3.9 nM; in test [1] (given as IC50 range) it was 10 to 100 nM.
`CC(C)CC(C)(N)COc1ccc2c3ccncc3c(=O)n(C)c2c1` (single isomer, unassigned) [Example 59, 8-((2-amino-2,4-dimethylpentyl)oxy)-6-methylbenzo[c][2,7]naphthyridin-5(6H)-one]: the IC50 at GST-Xa-hAAK1 (given as IC50 range) lay in the range of 1 to 10 nM; in test [1] (given as IC50 range), 10 to 100 nM.
As for `CC(C)C[C@H](N)COc1cc2c(cc1F)c1ccncc1c(=O)n2C` [Example 14, (S)-8-((2-amino-4-methylpentyl)oxy)-9-fluoro-6-methylbenzo[c][2,7]naphthyridin-5(6H)-one], the IC50 on GST-Xa-hAAK1 was 7 nM; in test [1] (given as IC50 range), 1 to 10 nM.
For the compound `Cc1nccc2c1c(=O)n(C)c1cc(OCC(C)(N)CC(C)C)c(Cl)cc21` (centres unmarked) [Example 41, 8-((2-amino-2,4-dimethylpentyl)oxy)-9-chloro-4,6-dimethylbenzo[c][2,7]naphthyridin-5(6H)-one], the values for the IC50 (on GST-Xa-hAAK1; in test [1]) were 0.64 nM and 3.3 nM, respectively.
Take `Cc1nccc2c1c(=O)[nH]c1c(F)c(OC[C@@H](N)CC(C)C)c(Cl)cc12` [Example 103, (S)-8-(2-amino-4-methylpentyloxy)-9-chloro-7-fluoro-4-methylbenzo[c][2,7]naphthyridin-5(6H)-one]: the figures for the IC50 (on GST-Xa-hAAK1 (given as IC50 range); in test [1] (given as IC50 range)) were 1 to 10 nM and 10 to 100 nM, respectively.
Taken in the same sequence, the figures for `Cc1nccc2c1c(=O)n(C)c1cc(OC[C@@H](N)CC(C)C)c(-c3cncs3)cc21` [Example 83, (S)-8-(2-amino-4-methylpentyloxy)-4,6-dimethyl-9-(thiazol-5-yl)benzo[c][2,7]naphthyridin-5(6H)-one] were 1 to 10 nM and 1 to 10 nM.
Consider `C=CCn1c(=O)c2cnccc2c2ccc(OC[C@@H](N)CC(C)C)cc21` [Example 9, (S)-6-allyl-8-((2-amino-4-methylpentyl)oxy)benzo[c][2,7]naphthyridin-5(6H)-one], for which the IC50 at GST-Xa-hAAK1 came out at 9.7 nM; in test [1] it was 24 nM.
`CC(C)C[C@H](N)COc1cc2c(cc1F)c1ccnc(N)c1c(=O)n2C` [Example 52, (S)-4-amino-8-(2-amino-4-methylpentyloxy)-9-fluoro-6-methylbenzo[c][2,7]naphthyridin-5(6H)-one]: the values for the IC50 (on GST-Xa-hAAK1 (given as IC50 range); in test [1]) were 1 to 10 nM and 2.4 nM, respectively.
For `CC(C)CC(C)(N)COc1ccc2c3ccncc3c(=O)n(C)c2c1` (single isomer, unassigned) [Example 58, 8-((2-amino-2,4-dimethylpentyl)oxy)-6-methylbenzo[c][2,7]naphthyridin-5(6H)-one], the results for the IC50 (on GST-Xa-hAAK1; in test [1] (given as IC50 range)) were 11 nM and 10 to 100 nM, respectively.
On to `Cn1c(=O)c2cnccc2c2ccc(OCC(N)CCC(F)(F)F)cc21` (centres unmarked) [Example 15, 8-(2-amino-5,5,5-trifluoropentyloxy)-6-methylbenzo[c][2,7]naphthyridin-5(6H)-one], for which the IC50 (on GST-Xa-hAAK1 (given as IC50 range); in test [1] (given as IC50 range)) was 10 to 100 nM each time.
